Tests used:
[1] = tested on: human embryonic stem cell derived neural stem cells (NSCs); test: Neural stem cell proliferation assay (neurogenesis assay, ATP/CellTiterGlo); format: cell-based; details: 96 h, compound concentration at which 150% activity of control (100%) is reached, NSC proliferation by ATP level after 4 days incubation, dose response 8 μM to 8 nM
Procedure: Neural Stem Cell Proliferation Assay
Neurogenic properties of small molecules are determined based on the proliferation of human embryonic stem cell derived neural stem cells (NSCs) which were derived via a dual smad inhibition as previously described (Chambers, S. M., et al., Highly efficient neural conversion of human ES and iPS cells by dual inhibition of SMAD signaling, Nature biotechnology, 2009. 27(3): p. 275-80.)
Compounds respond is measured by the increase in cells based on ATP levels (Promega:CellTiterGlo®) after an incubation period of 4 days.
NSCs are thawed and expanded over 3 passages. On the 14th day, NSCs are seeded in Polyornithin/Laminin coated 384 well plates at a cell density of 21,000 cells/cm^2 in a media volume of 38 μL.
4 hours after cell seeding, compound solutions are added at a volume of 2 μl. Stock solutions of the compounds (water, 5% DMSO) are diluted to obtain a dose response (11 points, dilution factor is 2), ranging from 8 μM to 8 nM. Controls are run to consistently determine the neurogenic properties of the cells:
Negative (neutral) control is cell culture Media (final DMSO concentration: 0.25%).
Positive controls are: • 1. cell culture Media+100 ng/ml FGF2 (final DMSO concentration: 0.1%) • 2. cell culture Media+20 ng/ml EGF (final DMSO concentration: 0.1%) • 3. cell culture Media+100 ng/ml Wnt3a (final DMSO concentration: 0.1%)
After 4 days incubation at 37° C., 5% CO2, the amount of ATP per well is quantified. The ATP concentration is proportional to the cell number. ATP is quantified by using the Promega CellTiterGlo® kit. The CellTiterGlo® reagents contain a cell lysis buffer, a thermo stable luciferase (UltraGlo™ recombinant luciferase), magnesium and luciferin. Luciferin reacts with ATP producing oxyluciferin, AMP and light. The luminescence signal is proportional to the ATP content.
The value of negative (neutral) control is determined for each assay plate by taking the average of 16 negative control wells. The neurogenic compound response is calculated for each compound as (compound/Negative Control)*100.
The values of EC150 from the dose response curve are determined for each test compound. The EC150 is the compound concentration at which 150% activity of control (100%) is reached.

Compound | EC150 [1] [µM] | melting point [°C]
Cc1ccc(-n2nccc2-c2ccc3ncn(-c4ccc(C)cc4)c3c2)cc1 [Example 1, 1-p-Tolyl-6-(2-p-tolyl-2H-pyrazol-3-yl)-1H-benzoimidazole] | 0.008 | 165
c1ccc(-n2nccc2-c2ccc3ncn(-c4ccccc4)c3c2)cc1 [Example 2, 1-Phenyl-6-(2-phenyl-2H-pyrazol-3-yl)-1H-benzoimidazole] | 0.014 | 194
Fc1ccc(-n2nccc2-c2ccc3ncn(-c4ccccc4)c3c2)cc1 [Example 3, 6-[2-(4-Fluoro-phenyl)-2H-pyrazol-3-yl]-1-phenyl-1H-benzoimidazole] | 0.024 | 201
Cc1ccc(-n2nccc2-c2ccc3ncn(-c4ccccc4)c3c2)cc1 [Example 4, 1-Phenyl-6-(2-p-tolyl-2H-pyrazol-3-yl)-1H-benzoimidazole] | 0.015 | 
Cc1ccc(-n2cnc3ccc(-c4ccnn4-c4ccccc4)cc32)cc1 [Example 5, 6-(2-Phenyl-2H-pyrazol-3-yl)-1-p-tolyl-1H-benzoimidazole] | 0.0165 | 146
Cc1ccc(-n2cnc3ccc(-c4ccnn4-c4ccc(F)cc4)cc32)cc1 [Example 6, 6-[2-(4-Fluoro-phenyl)-2H-pyrazol-3-yl]-1-p-tolyl-1H-benzoimidazole] | 0.0195 | 149
Fc1ccc(-n2cnc3ccc(-c4ccnn4-c4ccccc4)cc32)cc1 [Example 7, 1-(4-Fluoro-phenyl)-6-(2-phenyl-2H-pyrazol-3-yl)-1H-benzoimidazole] | 0.031 | 194
Fc1ccc(-n2nccc2-c2ccc3ncn(-c4ccc(F)cc4)c3c2)cc1 [Example 8, 1-(4-Fluoro-phenyl)-6-[2-(4-fluoro-phenyl)-2H-pyrazol-3-yl]-1H-benzoimidazole] | 0.044 | 173
Cc1ccc(-n2nccc2-c2ccc3ncn(-c4ccc(F)cc4)c3c2)cc1 [Example 9, 1-(4-Fluoro-phenyl)-6-(2-p-tolyl-2H-pyrazol-3-yl)-1H-benzoimidazole] | 0.009 | 
Fc1ccc(-n2cnc3ccc(-c4ccnn4-c4ccc(C(F)(F)F)cc4)cc32)cc1 [Example 10, 1-(4-Fluoro-phenyl)-6-[2-(4-trifluoromethyl-phenyl)-2H-pyrazol-3-yl]-1H-benzoimidazole] | 1.1 | 167
Fc1ccc(-n2cnc3ccc(-c4ccnn4-c4ccc(Cl)cc4)cc32)cc1 [Example 11, 6-[2-(4-Chloro-phenyl)-2H-pyrazol-3-yl]-1-(4-fluoro-phenyl)-1H-benzoimidazole] | 0.11 | 180
FC(F)(F)c1ccc(-n2nccc2-c2ccc3ncn(-c4ccc(Cl)cc4)c3c2)cc1 [Example 12, 1-(4-Chloro-phenyl)-6-[2-(4-trifluoromethyl-phenyl)-2H-pyrazol-3-yl]-1H-benzoimidazole] | 0.71 | 198
Clc1ccc(-n2nccc2-c2ccc3ncn(-c4ccc(Cl)cc4)c3c2)cc1 [Example 13, 1-(4-Chloro-phenyl)-6-[2-(4-chloro-phenyl)-2H-pyrazol-3-yl]-1H-benzoimidazole] | 0.082 | 182
FC(F)(F)c1ccc(-n2cnc3ccc(-c4ccnn4-c4ccc(Cl)cc4)cc32)cc1 [Example 14, 6-[2-(4-Chloro-phenyl)-2H-pyrazol-3-yl]-1-(4-trifluoromethyl-phenyl)-1H-benzoimidazole] | 0.62 | 196
Fc1ccc(-n2cnc3ccc(-c4ccnn4-c4ccc(C(F)(F)F)cc4)cc32)c(F)c1 [Example 15, 1-(2,4-Difluoro-phenyl)-6-[2-(4-trifluoromethyl-phenyl)-2H-pyrazol-3-yl]-1H-benzoimidazole] | 1.33 | 129
Fc1ccc(-n2cnc3ccc(-c4ccnn4-c4ccc(Cl)cc4)cc32)c(F)c1 [Example 16, 6-[2-(4-Chloro-phenyl)-2H-pyrazol-3-yl]-1-(2,4-difluoro-phenyl)-1H-benzoimidazole] | 0.19 | 133
Fc1ccc(-n2nccc2-c2ccc3ncn(-c4ccc(F)cc4F)c3c2)cc1 [Example 17, 1-(2,4-Difluoro-phenyl)-6-[2-(4-fluoro-phenyl)-2H-pyrazol-3-yl]-1H-benzoimidazole] | 0.047 | 152
Fc1ccc(-n2nccc2-c2ccc3ncn(-c4ccc(C(F)(F)F)cc4)c3c2)cc1 [Example 18, 6-[2-(4-Fluoro-phenyl)-2H-pyrazol-3-yl]-1-(4-trifluoromethyl-phenyl)-1H-benzoimidazole] | 0.41 | 204
Fc1ccc(-n2nccc2-c2ccc3ncn(-c4ccc(Cl)cc4)c3c2)cc1 [Example 19, 1-(4-Chloro-phenyl)-6-[2-(4-fluoro-phenyl)-2H-pyrazol-3-yl]-1H-benzoimidazole] | 0.09 | 173
Fc1ccc(-n2nccc2-c2ccc3ncn(-c4ccncc4)c3c2)cc1 [Example 20, 6-[2-(4-Fluoro-phenyl)-2H-pyrazol-3-yl]-1-pyridin-4-yl-1H-benzoimidazole] | 0.044 | 199
Clc1ccc(-n2nccc2-c2ccc3ncn(-c4ccncc4)c3c2)cc1 [Example 21, 6-[2-(4-Chloro-phenyl)-2H-pyrazol-3-yl]-1-pyridin-4-yl-1H-benzoimidazole] | 0.036 | 203
Fc1ccc(-n2nccc2-c2ccc3ncn(-c4ccc(Cl)cc4F)c3c2)cc1 [Example 22, 1-(4-Chloro-2-fluoro-phenyl)-6-[2-(4-fluoro-phenyl)-2H-pyrazol-3-yl]-1H-benzoimidazole] | 0.084 | 153
Fc1cc(Cl)ccc1-n1cnc2ccc(-c3ccnn3-c3ccc(Cl)cc3)cc21 [Example 23, 1-(4-Chloro-2-fluoro-phenyl)-6-[2-(4-chloro-phenyl)-2H-pyrazol-3-yl]-1H-benzoimidazole] | 0.17 | 158
COc1ccc(-n2cnc3ccc(-c4ccnn4-c4ccc(F)cc4)cc32)cc1 [Example 24, 6-[2-(4-Fluoro-phenyl)-2H-pyrazol-3-yl]-1-(4-methoxy-phenyl)-1H-benzoimidazole] | 0.021 | 143
COc1ccc(-n2cnc3ccc(-c4ccnn4-c4ccc(Cl)cc4)cc32)cc1 [Example 25, 6-[2-(4-Chloro-phenyl)-2H-pyrazol-3-yl]-1-(4-methoxy-phenyl)-1H-benzoimidazole] | 0.056 | 163
CS(=O)(=O)c1ccc(-n2cnc3ccc(-c4ccnn4-c4ccc(F)cc4)cc32)cc1 [Example 26, 6-[2-(4-Fluoro-phenyl)-2H-pyrazol-3-yl]-1-(4-methanesulfonyl-phenyl)-1H-benzoimidazole] | 0.28 | 247
CS(=O)(=O)c1ccc(-n2cnc3ccc(-c4ccnn4-c4ccc(Cl)cc4)cc32)cc1 [Example 27, 6-[2-(4-Chloro-phenyl)-2H-pyrazol-3-yl]-1-(4-methanesulfonyl-phenyl)-1H-benzoimidazole] | 0.16 | 280
Fc1ccc(-n2cnc3ccc(-c4cncn4-c4ccccc4)cc32)cc1 [Example 28, 1-(4-Fluoro-phenyl)-6-(3-phenyl-3H-imidazol-4-yl)-1H-benzoimidazole] | 0.07 | 216
Fc1ccc(-n2cnc3ccc(-c4cncn4-c4ccc(Cl)cc4)cc32)cc1 [Example 29, 6-[3-(4-Chloro-phenyl)-3H-imidazol-4-yl]-1-(4-fluoro-phenyl)-1H-benzoimidazole] | 0.074 | 254
Fc1ccc(-n2cncc2-c2ccc3ncn(-c4ccc(F)cc4)c3c2)cc1 [Example 30, 1-(4-Fluoro-phenyl)-6-[3-(4-fluoro-phenyl)-3H-imidazol-4-yl]-1H-benzoimidazole] | 0.11 | 247
